Measured values as given in patent US10815219B2, “2,4-diaminoquinazoline derivatives for inhibiting endoplasmic reticulum (ER) stress” (The Board of Regents of the University of Oklahoma, priority 2017, dated 2020).
Like-named read-outs stand apart in the source and are kept apart here.

How the values were obtained:
primary human islets = assay: Glucose-stimulated insulin secretion in Tm-treated primary human islets; assay type: cell-based; details: Tm 1 μg/mL, 48 h, 20 mM glucose, FIG. 9C
From the text: We determined whether 9c suppresses the apoptosis of primary human β cells induced by Tm treatment as assessed by TUNEL, which detects fragmentation of DNA, a marker of apoptotic cell death. […] Next, we investigated whether 9c restored the Tm-induced insulin secretion defect. […] ER stress induces activation of three branches of UPR (PERK, IRE1α, and ATF6), leading to up-regulation of ATF4, XBP1s, Bip, […], CHOP and eventual activation caspase 3 and cell apoptosis, while diminishing the expression of PDX1, MAFA and insulin genes, leading to β cell dysfunction. Compound 9c protects β cell against ER stress-mediated dysfunction and death by down-regulating ATF4, XBP1s, Bip, GRP94, CHOP, and caspase 3 and up-regulating PDX1, MAFA and insulin genes.
(§1) INS-1 or primary human islet cells were plated in 96-well plates. The second day, Tm and compound 9c were added and maintained for 24 h (INS-1) or 48 h (human islets). […] The secreted insulin was measured with insulin ELISA kits (for mouse insulin from Millipore and for human insulin from LifeTech). Cells were lysed with RIPA buffer (50 mM Tris HCl pH 7.4, 1% NP-40, 0.25% sodium deoxycholate, 150 mM NaCl), and total cellular protein was determined with a Bradford protein assay. […]

PDX1 and MafA mRNA = assay: qRT-PCR of β cell transcription factors in Tm-treated INS-1 cells; assay type: cell-based, rat; details: Tm 0.1 μg/mL, 9c 20 μM, 24 h, FIG. 5C, D
From the text: (§2) ER stress also impairs the most important function of β cells: the biosynthesis and secretion of insulin. Multiple steps of insulin synthesis and secretion are impaired under ER stress; they include insulin gene transcription, insulin mRNA stability, protein translation, and the insulin protein secretory process. First, we examined whether compound 9c could rescue Tm-suppressed mRNA levels of insulin genes. […] Second, we examined whether compound 9c affects the expression of β cell transcription factors PDX1 and MafA, which control β cell identity and the expression of insulin genes. Chronic exposure to supraphysiologic concentrations of glucose and its associated ER stress cause the down-regulation of expression of PDX1 and MafA. Consistent with this notion, Tm decreased the levels of PDX1 and MafA mRNA expression levels in INS-1 cells. […] Next, we explored whether compound 9c re-establishes Tm-impaired glucose-stimulated insulin secretion (GSIS).
INS-1 cells were seeded at 4×10^5 cells/well in 6-well plates and treated with compounds for the indicated times. Total RNA was extracted using TRIzol reagent (Invitrogen, Carlsbad, Calif.) according to the manufacturer's protocol, and 2 μg of total RNA was reverse transcribed using a Superscript kit (Invitrogen). […]

INS-1 cells [1] = assay: Glucose-stimulated insulin secretion in Tm-treated INS-1 cells; assay type: cell-based, rat; details: Tm 0.1 μg/mL, 24 h, 25 mM glucose, FIG. 5E
From the text: as §2
as §1, with “plates.” for “plates. The second day, Tm and compound 9c were added and maintained for 24 h (INS-1) or 48 h (human islets).”

INS-1 cells [2] = assay: INS-1 cell survival after Tm treatment (CellTiter-Glo, intracellular ATP); assay type: cell-based, rat; details: for EC50: Rattus norvegicus, read-out: EC50
Method: A structure-activity-relationship (SAR) study was thus conducted to improve the weak potency of lead compound 5a. Newly synthesized or commercially available compounds were tested for their β-cell-protective activity against ER stress in rat INS-1 β-cells. […] Maximum activity value in the tables is reported as % rescue from Tm (0.1 μg/mL)-induced reduction of cell viability. The values for Tm treatment alone and control (DMSO, without Tm) treatment are designated as 0% and 100%, respectively in all tables. EC50 values (the concentrations that reach half-maximal activity) for INS-1 cell viability were calculated with GraphPad Prism from the data of ten 2-fold serial titration points in all tables. All experiments were performed in triplicate in all tables.
INS-1 cells or βTC6 cells were seeded at 3×10^3 cells/well in a 384-well plate and treated with compounds at the indicated concentrations. After 3 d treatment, the medium was aspirated and 20 μL/well of CellTiter-Glo reagent (Promega, WI, USA) was added for the detection of intracellular ATP levels. Cell viability was measured with an EnVision multilabel plate reader (PerkinElmer, MA, USA).

ATF4 and CHOP protein = assay: Western blotting of ATF4 and CHOP in Tm-treated INS-1 cells; assay type: cell-based, rat; details: Tm 0.1 μg/mL, 9c 20 μM, FIG. 8C
From the text: We then determined the effect of 9c on the activation of the PERK pathway in β cells under ER stress. Activated PERK phosphorylates eukaryotic translation initiator factor 2a (eIF2α), which in turn attenuates general protein synthesis to relieve ER load. EIF2α phosphorylation also allows the selective translation of ATF4 mRNA, which encodes a transcription factor that induces the expression of the pro-apoptotic gene C/EBP-homologous protein (CHOP). Thus, we used ATF4 and CHOP expression levels as markers of PERK pathway activation. […] Together, our results that 9c inhibited the ER stress-mediated activation of all three UPR pathways indicate that 9c protects β cell survival by alleviating ER stress.
INS-1 cells were seeded in 60-mm dishes at 8×10^5 cells/dish and treated for the indicated times. Cells were then washed with PBS and lysed with lysis buffer (Cell Signaling Technology, Danvers, Mass.) containing EDTA (Thermo, IL) and phosphatase inhibitors (Thermo). Aliquots of 20 μg total protein were separated on 7% SDS-PAGE gels (Life Technologies) and transferred to PVDF membranes (Life Technologies). The membranes were probed with primary antibodies followed by the appropriate HRP-conjugated secondary antibodies (goat anti-rabbit IgG and goat anti-mouse IgG, 1:3000; Santa Cruz Biotechnology, CA, USA). Blots were then developed. […]

## COc1ccc(CNc2nc(N3CCCCC3CO)nc3ccccc23)cc1 (racemic) [Compound 9c, (1-(4-((4-methoxybenzyl)amino)quinazolin-2-yl)piperidin-2-yl)methanol]
Primary human islets
  glucose-stimulated insulin secretion (GSIS): significantly reversed this effect and restored the Tm-impaired GSIS
PDX1 and MafA mRNA
  PDX1 and MafA mRNA expression levels: almost completely reversed this decrease to normal levels
INS-1 cells [1]
  glucose-stimulated insulin secretion (GSIS): significantly rescued the GSIS
INS-1 cells [2]; % rescue from Tm (0.1 μg/mL)-induced reduction of cell viability, 72 h, Tm alone 0%, DMSO 100%, Table 3
  Maximum activity: 80.4%
INS-1 cells [2]; % rescue from Tm-induced reduction of INS-1 cell viability
  maximum activity (rescue): 80%
INS-1 cells [2]; INS-1 cells, Tm 0.1 μg/mL, 72 h, based on dose-dependent curves
  concentration exhibiting the maximum protective activity: 5 µM
INS-1 cells [2]; INS1, 72 h, INS-1 cell viability, Tm 0.1 μg/mL, 72 h, ten 2-fold serial titration points, Table 3
  EC50: 560 ± 180 nM
INS-1 cells [2]; INS1, running text, INS-1 cell viability in presence of Tm
  EC50: 560 nM
ATF4 and CHOP protein
  ATF4 and CHOP protein levels: decreased ATF4 and CHOP protein levels
